ChEMBL document CHEMBL1201862, “PubChem BioAssay data set” (2004)
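Test compounds were applied to cells in 96-well plates for 48 hours at 5 doses. GI50 = concentration required for 50% inhibition of growth.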 Activity calls are given as the source filed them. Cut-off read from the data, not from the text of the source: active = GI50 up to about 1.1 µM and inactive = higher.

Key:
Test in all cases: NCI tumour cell line growth inhibition, 48 h
SF-539 = test system: SF-539
SNB-75 = test system: SNB-75
HCT-15 = test system: HCT-15
MCF7 = test system: MCF7
MDA-MB-435 = test system: MDA-MB-435
CCRF-CEM = test system: CCRF-CEM
SN12C = test system: SN12C
M14 = test system: M14
EKVX = test system: EKVX
OVCAR-4 = test system: OVCAR-4
A549 = test system: A549
SK-OV-3 = test system: SK-OV-3
Malme-3M = test system: Malme-3M
T47D = test system: T47D
U-251 = test system: U-251
K562 = test system: K562
SK-MEL-5 = test system: SK-MEL-5
Hs-578T = test system: Hs-578T
RPMI-8226 = test system: RPMI-8226
SR = test system: SR

SMILES	GI50 (SF-539)	GI50 (SNB-75)	GI50 (HCT-15) [µM]	GI50 (MCF7)	GI50 (MDA-MB-435)	GI50 (CCRF-CEM)	GI50 (SN12C)	GI50 (M14)	GI50 (EKVX)	GI50 (OVCAR-4)	GI50 (A549)	GI50 (SK-OV-3)	GI50 (Malme-3M)	GI50 (T47D)	GI50 (U-251)	GI50 (K562)	GI50 (SK-MEL-5)	GI50 (Hs-578T)	GI50 (RPMI-8226)	GI50 (SR)
COC(c1ccsc1)C(C#N)(C#N)/N=C/c1ccsc1 (centres undefined)	15.7 µM (inactive)	15.1 µM (inactive)	13	2.18 µM (inactive)	15.5 µM (inactive)	5.96 µM (inactive)	16.7 µM (inactive)	17.8 µM (inactive)	14.2 µM (inactive)	20.9 µM (inactive)	30.5 µM (inactive)	21.1 µM (inactive)	15.3 µM (inactive)	13.9 µM (inactive)	17.3 µM (inactive)	13 µM (inactive)	13.6 µM (inactive)	22.1 µM (inactive)	–	–
COc1ccc(N(C(=O)Nc2ccc(Cl)c(Cl)c2)C2c3cccn3C(=O)N2c2ccc(Cl)c(Cl)c2)cc1 (centres undefined)	> 100 µM (inactive)	–	94	43.3 µM (inactive)	28.6 µM (inactive)	36 µM (inactive)	> 100 µM (inactive)	19.1 µM (inactive)	42.3 µM (inactive)	30.1 µM (inactive)	80.5 µM (inactive)	–	> 100 µM (inactive)	–	> 100 µM (inactive)	13.8 µM (inactive)	70.5 µM (inactive)	> 100 µM (inactive)	0.0724 µM (active)	12.4 µM (inactive)
COc1ccc(SC(C)(SC)c2ccccn2)c(OC)n1 (centres undefined)	> 100 µM (inactive)	–	54.7	60.1 µM (inactive)	> 100 µM (inactive)	–	> 100 µM (inactive)	> 100 µM (inactive)	> 100 µM (inactive)	83.4 µM (inactive)	79.4 µM (inactive)	–	71.1 µM (inactive)	–	> 100 µM (inactive)	51.4 µM (inactive)	37.4 µM (inactive)	91.2 µM (inactive)	23.3 µM (inactive)	47.2 µM (inactive)
CC(C)(C)c1ccccc1N1C(=O)c2ccc3c4c(ccc(c24)C1=O)N(c1ccccc1C(C)(C)C)C3=O	> 100 µM (inactive)	–	> 100	> 100 µM (inactive)	> 100 µM (inactive)	> 100 µM (inactive)	> 100 µM (inactive)	> 100 µM (inactive)	14.8 µM (inactive)	> 100 µM (inactive)	> 100 µM (inactive)	> 100 µM (inactive)	–	–	> 100 µM (inactive)	> 100 µM (inactive)	> 100 µM (inactive)	3.03 µM (inactive)	> 100 µM (inactive)	> 100 µM (inactive)
Clc1cc(-c2csc(Cl)c2)cs1	> 100 µM (inactive)	> 100 µM (inactive)	> 100	> 100 µM (inactive)	> 100 µM (inactive)	> 100 µM (inactive)	> 100 µM (inactive)	> 100 µM (inactive)	> 100 µM (inactive)	> 100 µM (inactive)	> 100 µM (inactive)	–	–	–	> 100 µM (inactive)	–	> 100 µM (inactive)	> 100 µM (inactive)	> 100 µM (inactive)	> 100 µM (inactive)
O=C(O)[C@H]1[C@@H](C2CCCCC2)O[C@@H](C2CCCCC2)O[C@H]1C(F)(F)F	35.7 µM (inactive)	18.7 µM (inactive)	30.1	–	19.4 µM (inactive)	22.8 µM (inactive)	17.1 µM (inactive)	17.9 µM (inactive)	21.4 µM (inactive)	36.2 µM (inactive)	20.9 µM (inactive)	38.9 µM (inactive)	28.6 µM (inactive)	30.5 µM (inactive)	18.8 µM (inactive)	33.1 µM (inactive)	20.7 µM (inactive)	23.1 µM (inactive)	23.9 µM (inactive)	20.7 µM (inactive)
COC1=Nc2ccccc2S(=O)(=O)C=C1	16.7 µM (inactive)	2.31 µM (inactive)	3.42	2.61 µM (inactive)	11.4 µM (inactive)	0.342 µM (active)	14.4 µM (inactive)	7.64 µM (inactive)	7.69 µM (inactive)	10.1 µM (inactive)	18.2 µM (inactive)	45.7 µM (inactive)	2.5 µM (inactive)	3.66 µM (inactive)	11.4 µM (inactive)	–	11.4 µM (inactive)	18.7 µM (inactive)	–	–
Cc1ccc2c(=O)c(-c3n[nH]c(=S)s3)c[nH]c2n1	–	–	> 100	> 100 µM (inactive)	> 100 µM (inactive)	> 100 µM (inactive)	> 100 µM (inactive)	> 100 µM (inactive)	> 100 µM (inactive)	> 100 µM (inactive)	> 100 µM (inactive)	–	> 100 µM (inactive)	> 100 µM (inactive)	> 100 µM (inactive)	> 100 µM (inactive)	> 100 µM (inactive)	> 100 µM (inactive)	> 100 µM (inactive)	–
NC(=O)NC(CC(=O)O)C(=O)O (centres undefined)	–	> 100 µM (inactive)	> 100	–	> 100 µM (inactive)	> 100 µM (inactive)	> 100 µM (inactive)	> 100 µM (inactive)	> 100 µM (inactive)	> 100 µM (inactive)	> 100 µM (inactive)	–	> 100 µM (inactive)	> 100 µM (inactive)	> 100 µM (inactive)	> 100 µM (inactive)	> 100 µM (inactive)	> 100 µM (inactive)	> 100 µM (inactive)	> 100 µM (inactive)
COc1cccc(-c2cc(O)c3cc(NC(C)=O)ccc3n2)c1	14.2 µM (inactive)	–	32	5.65 µM (inactive)	3.8 µM (inactive)	5.6 µM (inactive)	78 µM (inactive)	27.2 µM (inactive)	53 µM (inactive)	–	61.7 µM (inactive)	> 100 µM (inactive)	5.05 µM (inactive)	–	9.57 µM (inactive)	–	14.6 µM (inactive)	2.63 µM (inactive)	42.9 µM (inactive)	2.34 µM (inactive)
COc1cc(C(=O)O[C@H]2CCC3CCC2N3C)cc(OC)c1OC (some centres undefined)	> 100 µM (inactive)	58.9 µM (inactive)	> 100	> 100 µM (inactive)	> 100 µM (inactive)	> 100 µM (inactive)	> 100 µM (inactive)	> 100 µM (inactive)	> 100 µM (inactive)	> 100 µM (inactive)	> 100 µM (inactive)	> 100 µM (inactive)	> 100 µM (inactive)	–	> 100 µM (inactive)	> 100 µM (inactive)	> 100 µM (inactive)	> 100 µM (inactive)	> 100 µM (inactive)	> 100 µM (inactive)
O=C(NCCC1CNc2ccccc21)OCc1ccccc1 (centres undefined)	–	–	> 100	> 100 µM (inactive)	> 100 µM (inactive)	87.7 µM (inactive)	–	> 100 µM (inactive)	> 100 µM (inactive)	> 100 µM (inactive)	> 100 µM (inactive)	> 100 µM (inactive)	> 100 µM (inactive)	–	> 100 µM (inactive)	> 100 µM (inactive)	> 100 µM (inactive)	> 100 µM (inactive)	> 100 µM (inactive)	> 100 µM (inactive)
